{
  "source": "patent US6319952A",
  "about": "“Compositions and methods for reversibly increasing permeability of biomembranes” (D-Pharm Ltd., priority 1997, dated 2001)",
  "key": {"[1]": {"test_system": "bovine brain capillary endothelial cells in co-culture with astrocytes", "assay": "Reversibility of DP-BFA effect on the paracellular permeability of the BBB in vitro", "format": "cell-based", "details": "for permeability of the monolayer for sucrose and inulin: 1 hour incubation", "description": "In regard with the previous results, 0.16 mg/ml (paracellular opening after 1 hr) and 0.32 mg/ml (paracellular and transcellular openings after 1 hr) were chosen to study the reversibility of the effect of DP-BFA.\nEndothelial cells are cocultured 12 days, on the twelfth culture day DP-BFA was added to the cultures for 1 hour, and then removed by replacement of the culture medium. The cultures then were maintained for a further 24 hours without DP-BFA, and subsequently assayed for paracellular permeability.\n(§1) Permeability studies were carried out on the monolayer of endothelial cells, using two paracellular tracers: inulin-^3 H and sucrose-^14C."}, "[2]": {"test_system": "bovine brain capillary endothelial cells in co-culture with astrocytes", "assay": "Determination of lactate dehydrogenase (LDH) in the medium of endothelial cells in coculture", "format": "cell-based", "description": "In the same experiments, lactate dehydrogenase was assayed in the medium in order to check the toxicity. This cytoplasmic enzyme is not able to cross the cellular membrane except if the membrane integrity is destroyed. An increase in the release of Lactate Dehydrogenase (LDH) indicates a breakdown of the cellular membrane, leading to a cellular death. In other words, the LDH determination in the medium allows an assessment of cell viability. […]"}, "[3]": {"test_system": "bovine brain capillary endothelial cells in co-culture with astrocytes", "assay": "Reversibility kinetic of DP-BFA effect on the paracellular permeability of the BBB in vitro", "format": "cell-based", "description": "Endothelial cells are cocultured 12 days, and on the twelfth day DP-BFA was added to the cultures for one hour. The cultures were then washed to remove the test material and cultured for a further period of 3, 6 or 18 hours without DP-BFA.\nas §1"}, "[4]": {"test_system": "mice", "details": "mouse, in vivo"}, "[5]": {"test_system": "rodent brains", "assay": "Neurotoxicity by histopathology on fixed sectioned rodent brains", "format": "in vivo, rat", "details": "20 or 200 μg/ml via internal carotid artery, 3 or 72 hr post infusion", "description": "Potential neurotoxicity after treatment with M 3,14 was assessed by means of histopathology on fixed sectioned rodent brains.\nNine rodent brains were fixed in 10% neutral buffered formalin. These brains were obtained from rats infused with either buffer, 20 μg/ml, or 200 μg/ml M3,14 via the left internal carotid artery. The experiment was terminated and the samples collected either 3 or 72 hr. post infusion. Specimen and group identification were as follows:\ncontrol: 3 hr (2), 72 hr (1);\nUpon receipt, coronal sections were prepared through the forebrain, midbrain and hindbrain. The right-left orientation was identified by placing a small cut in the cortex on the right side of the section. The sections were embedded as a single block, processed routinely in paraffin, sectioned at five microns and stained with hematoxylin and eosin. Sections were evaluated qualitatively."}, "[6]": {"test_system": "blood-brain barrier (BBB)", "assay": "Effect of branched chain fatty acids on BBB permeability by qualitative Evan's Blue (EB) evaluation in rats", "format": "in vivo, rat (male Sprague-Dawley)", "description": "Evaluation of Effect of Branched Fatty Acids on Blood-brain Barrier Permeability\nThe experiments were carried out on male Sprague-Dawley rats weighing 250-320 gr. They were anesthetized with Rampun-Imalgen. The right common carotid artery was exposed.\nThe test compounds were dissolved in 0.1M phosphate buffered physiological saline (pH=7.4) at the following test concentrations: 1.6; 8; 20; 40; 200 and 1000 μg/ml.\nThe test compound was infused into the right common carotid artery at a rate of 6 ml/min. for 30 s. The control rats were infused with buffer. Evan's Blue (EB) solution at a concentration of […] (2 g Evan's Blue, 0.9 g NaCl in 100 ml water) was injected intravenously 50 minutes prior to the termination of the experiment.\nIn the case of 45 min experiment, five minutes prior to the infusion of the tested material, 4 ml/kg body wt dose of Evans Blue solution was injected intravenously.\nAt the end of the experimental time period the animals were perfused with 100 ml of saline solution through the heart and decapitated. The degree of BBB opening, in terms of extravasation of Evan's Blue albumin, was graded on the basis of visual assessment of the degree of staining of the brain ato the method of Rapoport et al. (Rapoport et al., 1980, Amer. J. Physiol. 258, 421-431), and the results are presented in Tables 1 and 2.\nThe results presented are qualitative with four degrees of Evan's Blue extravasation according to Rapoport et al. Minus signs represents no staining and three plus signs represent maximal staining."}, "[7]": {"details": "0.16 mg/ml 1 hr, then 3 hrs fresh medium"}, "[8]": {"details": "0.16 mg/ml 1 hr, then 6 hrs fresh medium"}, "[9]": {"details": "0.16 mg/ml 1 hr, then 18 hrs fresh medium"}},
  "note": "“Also recorded” adds a separate entry of the source.",
  "data": [
    {"compound": "CCCCCCCCCCCCCCC(CCC)C(=O)O", "note": "(stereo not drawn) [M 3/14, 2-propylhexadecanoic acid]", "values": [
      {"measurement": "reversibility of paracellular permeability (clearance at 45 minutes)", "setting": "[1]; 0.16 mg/ml 1 hr, then 24 hrs without DP-BFA", "value": "complete reversibility"},
      {"measurement": "permeability of the monolayer for sucrose and inulin", "setting": "[1]; 0.16 mg/ml", "value": "increase in the permeability"},
      {"measurement": "decrease of paracellular permeability (clearance at 45 minutes)", "setting": "[1]; 0.32 mg/ml 1 hr, then 24 hrs without DP-BFA", "value": 50, "unit": "%"},
      {"measurement": "permeability of the monolayer for sucrose and inulin", "setting": "[1]; 0.32 mg/ml", "value": "increase in the permeability"},
      {"measurement": "paracellular breakdown (opening of the tight junctions)", "setting": "[1]; 0.32 mg/ml, 1 hr", "value": "paracellular breakdown (opening of the tight junctions)"},
      {"measurement": "reversibility of DP-BFA effect", "setting": "[1]; higher concentrations", "value": "Partial reversibility"},
      {"measurement": "LDH release", "setting": "[2]; 0.16 mg/ml, 24 hrs incubation", "value": "significant increase in LDH release"},
      {"measurement": "cytotoxic effect", "setting": "[2]; 0.16 mg/ml, 24 hrs incubation", "value": "cytotoxic effect"},
      {"measurement": "LDH release", "setting": "[2]; 1 hr incubation, paracellular study", "value": "no significant increase in LDH release"},
      {"measurement": "LDH release", "setting": "[2]; 1 hr incubation, transcellular study", "value": "No increase in release of LDH"},
      {"measurement": "cytotoxic effect", "setting": "[2]; 1 hr incubation, listed as DP-BFA", "value": "No cytotoxic effect; also recorded: not associated with cytotoxic effects"},
      {"measurement": "cytotoxic effect", "setting": "[2]; 24 hrs reversibility study", "value": "No cytotoxic effect"},
      {"measurement": "LDH release", "setting": "[2]; after 1 hr and after 24 hrs reversibility study", "value": "No increase in release of LDH"},
      {"measurement": "LDH release", "setting": "[2]; reversibility kinetic study", "value": "No increase in release of LDH"},
      {"measurement": "cytotoxic effect", "setting": "[2]; reversibility kinetic study", "value": "No cytotoxic effect"},
      {"measurement": "decrease in paracellular permeability for inulin (clearance at 45 minutes)", "setting": "[3]; [7]", "value": 58, "unit": "%"},
      {"measurement": "decrease in paracellular permeability for sucrose (clearance at 45 minutes)", "setting": "[3]; [7]", "value": 56, "unit": "%"},
      {"measurement": "decrease in paracellular permeability for inulin (clearance at 45 minutes)", "setting": "[3]; [8]", "value": 58, "unit": "%"},
      {"measurement": "decrease in paracellular permeability for sucrose (clearance at 45 minutes)", "setting": "[3]; [8]", "value": 57, "unit": "%"},
      {"measurement": "decrease in paracellular permeability for inulin (clearance at 45 minutes)", "setting": "[3]; [9]", "value": 76, "unit": "%"},
      {"measurement": "decrease in paracellular permeability for sucrose (clearance at 45 minutes)", "setting": "[3]; [9]", "value": 72, "unit": "%"},
      {"measurement": "reversibility of DP-BFA effect", "setting": "[3]; 0.16 mg/ml 1 hr, after 3, 6 and 18 hrs", "value": "incomplete reversibility"},
      {"measurement": "paracellular transport after removal", "setting": "[3]; after 3 hours, preliminary kinetic study", "value": "a decrease in the paracellular transport could be observed"},
      {"measurement": "brain edema or general edema", "setting": "[4]", "value": "no brain edema or general edema was observed"},
      {"measurement": "histopathology (neurotoxicity)", "setting": "[5]; listed as M 3,14", "value": "no treatment related changes observed"},
      {"measurement": "histopathology (neurotoxicity)", "setting": "[5]; listed as M3,14", "value": "No treatment related changes were observed"},
      {"measurement": "Visual EB", "setting": "[6]; 1.6 μg/ml (5 μM/ml), 180 min", "value": "-"},
      {"measurement": "Visual EB", "setting": "[6]; 8 μg/ml (25 μM/ml), 180 min", "value": "+"},
      {"measurement": "Visual EB", "setting": "[6]; 20 μg/ml (62.5 μM/ml), 180 min", "value": "+"},
      {"measurement": "Visual EB", "setting": "[6]; 40 μg/ml (125 μM/ml), 45 min", "value": "++"},
      {"measurement": "Visual EB", "setting": "[6]; 40 μg/ml (125 μM/ml), 180 min", "value": "++"},
      {"measurement": "Visual EB", "setting": "[6]; 125 μM, 180 min, intracarotid infusion", "value": "++"},
      {"measurement": "Visual EB", "setting": "[6]; 200 μg/ml (625 μM/ml), 45 min", "value": "+++"},
      {"measurement": "Visual EB", "setting": "[6]; 625 μM, 45 min, intracarotid infusion", "value": "+++"},
      {"measurement": "Visual EB", "setting": "[6]; 1000 μg/ml (3125 μM/ml), 45 min", "value": "+++"},
      {"measurement": "BBB permeability enhancement, potency ranking", "setting": "[6]; Table 1 compounds", "value": "most potent BBB permeability enhancer"}
    ]}
  ]
}
